The target of this assay is TAR RNA. Description: In vitro binding of resin-bound compounds to TAR RNA (OD260 of unbound RNA). Also on record: species or system HIV. The settings on record: in vitro assay; compounds of formula I on TentaGel beads incubated with TAR RNA overnight at 4° C. in TK buffer; read-out: Kd (nM), binding constants. The method, then: Binding of compounds of formula I and V to TAR RNA was measured by evaluating their inhibition of TAR-TAT complex formation in the presence of increasing levels of the compound to be tested. The compounds of formula I were tested in an in vitro assay; the compounds of formula V were tested in an in vivo assay.
The TAR RNA used corresponds to the minimal sequence required for TAT responsiveness in vivo. This 29-residue oligonucleotide has the sequence: 5′-[…]-3′ (SEQ ID NO.: 1). TAR RNA was prepared by in vitro transcription. A “top strand” single-stranded DNA oligomer having the sequence 5′-TAATACGACTCACTATAG-3′ (SEQ ID NO.: 2) was annealed to a “bottom strand” single-stranded DNA template having the following sequence: 3′-[…]-5′ (SEQ ID NO.: 3), thereby generating a double-stranded region corresponding to a promoter sequence recognized by T7 RNA polymerase. Transcription was carried out in transcription buffer (40 mM Tris-HCl, pH 8.1, 1 mM spermidine, 0.01% Triton®X-100, 5 mM dithiothreitol, 4 mM each of ATP, GTP, CTP, and UTP at 37° C. for 4 to 5 hours. Reactions were performed in a volume of 0.02 ml containing 8 pmole of template (top strand annealed to bottom strand) and 40 to 60 units of T7 RNA polymerase. Transcription was terminated by adding an equal volume of loading buffer (9M urea, 1 mmol EDTA, 0.1M bromophenol blue in 1XTBE buffer; TBE is 45 mmol trisborate at pH 8). Product RNA was purified by electrophoresis through a denaturing 20% polyacrylamide gel containing 8M urea. RNA was extracted from the gel, precipitated, dissolved in dithylpyrocarbonate-treated water, and stored at −20° C. until used.
In vitro assay conditions: Compounds AA-DU were synthesized on TentaGel S—NH2 (4.6 mmole). All Fmoc-amino acids were purchased from Bachem (Torrance, Calif.). 1-hydroxybenzotriazole (HOBT) and diisopropylcarbodiimide (DIPCDI) were obtained from Aldrich Chemical Co., Milwalkee, Wis. Piperidine and trifluoroacetic acid were purchased from Applied Biosystems Division, Perkin-Elmer. Compounds AA-DU were synthesized manually according to standard solid-phase peptide synthesis protocols. Coupling efficiencies of residues at each step were monitored by Kaiser test. Deprotection of trimer peptides was carried out in 10% water in trifluoroacetic acid (1 mL) for 16 hours at room temperature. After filtration of solvents, the resin was washed with water (1 mL×4), DMF (1 mL×4), dichloromethane (1 mL×4), and dried under reduced pressure. The compounds attached to the resin (10 beads) were placed in an Eppendorf tube and washed with TK buffer ([…]). The beads were suspended in TK buffer ([…]) and incubated with TAR RNA ([…]) overnight at 4° C. The suspension was centrifuged and the supernatant containing unbound RNA was transferred to a cuvette for OD260 measurements. The UV absorbance was measured by a Shimadzu UV-1601 spectrometer. Equilibrium concentrations of RNA were determined from these measurements. Given that the initial concentrations of ligand and RNA are known, and assuming simple bimolecular receptor/substrate binding, dissociation constant (KD) was calculated from straightforward equations.

For orientation: Kd means the concentration at which binding is half-saturated.

For `NCCCCCNCC(=O)N(CCCCCN)CC(=O)N[C@H](CCCCN)COC(N)=O` [Compound BF, Carbamic acid 6-amino-2-(2-{(5-amino-pentyl)-[2-(5-amino-pentylamino)-acetyl]-amino}-acetylamino)-hexyl ester], the Kd came out at 147 nM.

Consider `NCCCCCCCN(CC(=O)N[C@H](CCCCN)COC(N)=O)C(=O)[C@H](N)CCCCN` [Compound BN, Carbamic acid 6-amino-2-{2-[(7-amino-heptyl)-(2,6-diamino-hexanoyl)-amino]-acetylamino}-hexyl ester], for which the Kd is 3150 nM.

As to `NCCCC[C@@H](COC(N)=O)NC(=O)OC[C@H](CCCCN)NC(=O)OC[C@H](N)CCC(N)=O` [Compound CR, Carbamic acid 6-amino-2-[6-amino-2-(2-amino-4-carbamoyl-butoxycarbonylamino)-hexyloxycarbonylamino]-hexyl ester], the Kd came out at 981 nM.

Turning to `NCCCCNCC(=O)N[C@@H](CCCCN)C(=O)N[C@H](CCCCN)COC(N)=O` [Compound BZ, Carbamic acid 6-amino-2-{6-amino-2-[2-(4-amino-butylamino)-acetylamino]-hexanoylamino}-hexyl ester], the dissociation constant (Kd) was 130 nM.

As to `NCCCC[C@H](COC(N)=O)NC(=O)CN(CCCCN)C(=O)[C@@H](N)CCCCN` [Compound AU, Carbamic acid 6-amino-2-{2-[(4-amino-butyl)-(2,6-diamino-hexanoyl)-amino]-acetylamino}-hexyl ester], the Kd is 147 nM.

On to `NCCCC[C@H](COC(N)=O)NC(=O)[C@H](CCCCN)NC(=O)[C@@H](N)CCCCN` (stereo in doubt) [Compound BV, Carbamic acid 6-amino-2-[6-amino-2-(2,6-diamino-hexanoylamino)-hexanoylamino]-hexyl ester], for which the Kd was determined as 403 nM.

On to `N=C(N)NCCC[C@H](N)COC(=O)N(CCCCCCCN)CC(=O)N[C@H](CCCCN)COC(N)=O` [Compound BR, Carbamic acid 6-amino-2-{2-[(2-amino-5-guanidino-pentyloxycarbonyl)-(7-amino-heptyl)-amino]-acetylamino}-hexyl ester], for which the Kd worked out at 5590 nM.

Consider `NCCCCCCCN(CC(=O)N[C@H](CCCCN)COC(N)=O)C(=O)CNCCCCN` [Compound BQ, Carbamic acid 6-amino-2-{2-[[2-(4-amino-butylamino)-acetyl]-(7-amino-heptyl)-amino]-acetylamino}-hexyl ester], for which the Kd is 235 nM.

`NCCCCCCCNCC(=O)N[C@@H](CCCCN)C(=O)N[C@H](CCCCN)COC(N)=O` [Compound BY, Carbamic acid 6-amino-2-{6-amino-2-[2-(7-amino-heptylamino)-acetylamino]-hexanoylamino}-hexyl ester]: the equilibrium dissociation constant (Kd) is 183 nM.

As for `NCCCCCNCC(=O)N[C@H](CCCCN)COC(=O)N[C@H](CCCCN)COC(N)=O` [Compound AE, Carbamic acid 6-amino-2-{6-amino-2-[2-(5-amino-pentylamino)-acetylamino]-hexyloxycarbonylamino}-hexyl ester], the Kd is 1110 nM.

Turning to `NCCCC[C@H](COC(N)=O)NC(=O)CN(CCCCN)C(=O)[C@H](N)CCCCN` [Compound AV, Carbamic acid 6-amino-2-{2-[(4-amino-butyl)-(2,6-diamino-hexanoyl)-amino]-acetylamino}-hexyl ester], the Kd turned out to be 325 nM.

`N=C(N)NCCC[C@H](N)COC(=O)N[C@@H](CCCCN)COC(=O)N[C@H](CCCCN)COC(N)=O` [Compound AQ, Carbamic acid 6-amino-2-[6-amino-2-(2-amino-5-guanidino-pentyloxycarbonylamino)-hexyloxycarbonylamino]-hexyl ester]: the Kd turned out to be 2080 nM.

As for `NCCCCNCC(=O)N[C@@H](CCCCN)COC(=O)N[C@@H](CCCCN)COC(N)=O` [Compound CP, Carbamic acid 6-amino-2-{6-amino-2-[2-(4-amino-butylamino)-acetylamino]-hexyloxycarbonylamino}-hexyl ester], the Kd amounted to 678 nM.

As for `NCCCCCN(CC(=O)N[C@H](CCCCN)COC(N)=O)C(=O)OC[C@H](N)CCC(N)=O` [Compound BJ, Carbamic acid 6-amino-2-{2-[(2-amino-4-carbamoyl-butoxycarbonyl)-(5-amino-pentyl)-amino]-acetylamino}-hexyl ester], the Kd was determined as 202 nM.

In the case of `NCCCC[C@@H](COC(N)=O)NC(=O)OC[C@H](CCCCN)NC(=O)[C@H](N)CCCCN` [Compound CM, Carbamic acid 6-amino-2-[6-amino-2-(2,6-diamino-hexanoylamino)-hexyloxycarbonylamino]-hexyl ester], the Kd amounted to 491 nM.

`N=C(N)NCCC[C@H](N)COC(=O)N[C@H](CCCCN)COC(=O)N[C@H](CCCCN)COC(N)=O` [Compound AH, Carbamic acid 6-amino-2-[6-amino-2-(2-amino-5-guanidino-pentyloxycarbonylamino)-hexyloxycarbonylamino]-hexyl ester]: the Kd came out at 460 nM.

In the case of `NCCCC[C@H](COC(N)=O)NC(=O)CN(CCCCN)C(=O)OC[C@H](N)CCC(N)=O` [Compound BA, Carbamic acid 6-amino-2-{2-[(4-amino-butyl)-(2-amino-4-carbamoyl-butoxycarbonyl)-amino]-acetylamino}-hexyl ester], the Kd was found to be 460 nM.

As to `NCCCC[C@H](N)COC(=O)N(CCCCN)CC(=O)N[C@@H](CCCCN)COC(N)=O` [Compound CS, Carbamic acid 6-amino-2-{2-[(4-amino-butyl)-(2,6-diamino-hexyloxycarbonyl)-amino]-acetylamino}-hexyl ester], the Kd turned out to be 491 nM.

`NCCCC[C@@H](COC(N)=O)NC(=O)CN(CCCCN)C(=O)[C@H](N)CCCCN` [Compound CV, Carbamic acid 6-amino-2-{2-[(4-amino-butyl)-(2,6-diamino-hexanoyl)-amino]-acetylamino}-hexyl ester]: the Kd was determined as 567 nM.

Consider `NCCCC[C@H](COC(N)=O)NC(=O)[C@H](CCCCN)NC(=O)[C@H](N)CCCCN` [Compound BW, Carbamic acid 6-amino-2-[6-amino-2-(2,6-diamino-hexanoylamino)-hexanoylamino]-hexyl ester], for which the Kd was determined as 678 nM.

`N=C(N)NCCC[C@H](N)COC(=O)N(CCCCCN)CC(=O)N[C@H](CCCCN)COC(N)=O` [Compound BI, Carbamic acid 6-amino-2-{2-[(2-amino-5guanidino-pentyloxycarbonyl)-(5-amino-pentyl)-amino]-acetylamino}-hexyl ester]: the Kd was determined as 202 nM.

Take `NCCCCCN(CC(=O)N[C@@H](CCCCN)COC(N)=O)C(=O)CNCCCCN` [Compound DH, Carbamic acid 6-amino-2-{2-[[2-(4-amino-butylamino)-acetyl]-(5-amino-pentyl)-amino]-acetylamino}-hexyl ester]: the Kd turned out to be 7690 nM.

Consider `NCCCCCCCN(CC(=O)N[C@@H](CCCCN)COC(N)=O)C(=O)[C@@H](N)CCCCN` [Compound DM, Carbamic acid 6-amino-2-{2-[(7-amino-heptyl)-(2,6-diamino-hexanoyl)-amino]-acetylamino}-hexyl ester], for which the dissociation constant Kd was 256 nM.

As for `NCCCCCNCC(=O)N(CCCCN)CC(=O)N[C@@H](CCCCN)COC(N)=O` [Compound CW], the Kd is 3980 nM.

On to `NCCCCCCCNCC(=O)N(CCCCCN)CC(=O)N[C@H](CCCCN)COC(N)=O` [Compound BG, Carbamic acid 6-amino-2-{2-[[2-(7-amino-heptylamino)-acetyl]-(5-amino-pentyl)-amino]-acetylamino}-hexyl ester], for which the Kd came out at 431 nM.

For `NCCCCCN(CC(=O)N[C@@H](CCCCN)COC(N)=O)C(=O)[C@@H](N)CCCCN` [Compound DD, Carbamic acid 6-amino-2-{2-[(5-amino-pentyl)-(2,6-diamino-hexanoyl)-amino]-acetylamino}-hexyl ester], the Kd is 567 nM.

As for `NCCCC[C@@H](COC(N)=O)NC(=O)CN(CCCCN)C(=O)[C@@H](N)CCCCN` [Compound CU, Carbamic acid 6-amino-2-{2-[(4-amino-butyl)-(2,6-diamino-hexanoyl)-amino]-acetylamino}-hexyl ester], the Kd is 718 nM.
